# Laboratory results as given in PubChem BioAssay AID687029 (Broad Institute, 2013).
# Tested on: RMG-1 viability, CellTiterGlo ATP luminescence, 96 h
# Test: RMG-1 ovarian cancer cell viability loss – cherry-pick, dose response (AID 687029)
row,SMILES,AC50 [nM]
1,CCC(=O)NC(c1ccc(C)cc1)c1ccc2cccnc2c1O (stereo not drawn),< 260
2,C[C@@H]1CCCCO[C@@H](CN(C)Cc2ccc(C(F)(F)F)cc2)[C@@H](C)CN([C@@H](C)CO)C(=O)c2cc(NS(=O)(=O)c3ccc(F)cc3)ccc2O1,35500
3,CN1c2ccc(-c3cccc(F)c3)cc2[C@@H]2[C@@H](CCN2C(=O)Cc2ccccc2)[C@@H]1CO,479
4,C=C(C)c1cccc(C(C)(C)NC(=O)N2CCN(c3ccccc3OC)CC2)c1,< 260
5,CC(C)c1cc(C(=O)OCC(=O)N2CCN(C(=O)c3ccco3)CC2)c(O)c(C(C)C)c1,< 260
6,Cc1ccccc1CNC(=O)C1CCCN(c2nnc(C)c3c(C)n(-c4ccccc4)nc23)C1 (stereo not drawn),< 260
7,COc1ccc(/C=N/NC(=O)c2[nH]c3ccc(Br)cc3c2-c2ccccc2)cc1,< 260
8,CCOc1ccc(-n2c(=S)sc3c(=O)[nH]c(SCC(=O)NCC4CCCO4)nc32)cc1 (stereo not drawn),< 260
9,COc1ccc(S(=O)(=O)Nc2ccc3c(c2)C(=O)N([C@@H](C)CO)C[C@H](C)[C@@H](CN(C)Cc2ccc(C(F)(F)F)cc2)OCCCC[C@H](C)O3)cc1,372
10,Cc1ccc(NC(=O)Cn2ncc(Cl)c(Cl)c2=O)cc1S(=O)(=O)N1CCCCC1,< 260
11,S=c1sc2c(Cl)ncnc2n1-c1ccccc1,< 260
12,O=C(Nc1cccc(-c2ccc(N3CCCCC3)nn2)c1)C(F)(F)F,< 260
13,OCCCNc1nccc(-c2cc(Nc3cccc(Cl)c3)ncn2)n1,< 260
14,Nc1nc(=S)c2[nH]cnc2[nH]1,< 260
15,Cc1ccc(S(=O)(=O)CC(CN2CCCCC2)N2CCCCC2)cc1 (stereo not drawn),< 260
16,COc1ccc(-c2nc3c(c(SCC(=O)Nc4cccc(O)c4)n2)Cc2c(CO)cnc(C)c2O3)cc1,10500
17,CC(C)CCCCCCCCCCCCC(=O)NCC(=O)NC1C(C)OC(Nc2ncnc3nc[nH]c23)C(O)C1O (stereo not drawn),275
18,COc1ccc(C(=O)c2ccc(Cl)c([N+](=O)[O-])c2)cc1,< 260
19,Cc1cc(C(C)(C)C)cc(C)c1Cn1c2[n+](c3ccc(C(F)(F)F)cc31)CCCCC2,< 260
20,CCN(CC)S(=O)(=O)c1cc(NC(=O)Cn2ncc(Cl)c(Cl)c2=O)ccc1C,< 260
21,COc1ccc(CCNc2nnc(Sc3nnnn3-c3ccccc3)s2)cc1OC,13000
22,COc1cc(/C=N/O)ccc1OCc1ccc(C(=O)O)cc1,12800

row,SMILES,AC50 [nM]
1,c1cc2c(cc1C1=NNC(=NC3CC3)SC1)OCCO2,< 260
2,COc1cc2nc(C3CCC3)nc(N3CCN(c4ccccc4OC)CC3)c2cc1OC,< 260
3,C[C@@H]1O[C@@H](O[C@@H]2C=C3CC[C@@H]4C(CC[C@]5(C)[C@@H](c6ccc(=O)oc6)CC[C@]45O)[C@@]3(C)CC2)[C@H](O)[C@H](O)[C@H]1O (stereo partly drawn),< 260
4,O=C(Nc1ccc(N2CCN(C(=O)c3ccccc3)CC2)cc1)c1ccc([N+](=O)[O-])o1,< 260
5,O=[N+]([O-])c1cccnc1S(=O)(=O)c1ccccc1,< 260
6,C[C@@H]1CN([C@@H](C)CO)C(=O)Cc2cc(NS(=O)(=O)c3ccc(Cl)cc3)ccc2O[C@H]1CN(C)Cc1ccc(Oc2ccccc2)cc1,< 260
7,COc1cccc(S(=O)(=O)NCC(=O)Nc2ccc(C(C)(C)C)cc2)c1,< 260
8,CC1CC(C)(O)CC(C(O)CC2CC(=O)NC(=O)C2)C1=O (stereo not drawn),< 260
9,O=C(CN1C(=O)c2ccccc2S1(=O)=O)c1ccc2c(c1)OCCO2,< 260
10,O=C(Nc1cccc(Cl)c1)Nc1nnc(-c2ccncc2)s1,< 260
11,COc1ccc(C(=O)NC(=S)NNC(=O)c2c(-c3ccccc3)noc2C)cc1,< 260
12,N#Cc1ccc(-c2ccc(C3[C@@H]4CN(C(=O)C5CC5)C[C@H]3N4)cc2)cc1 (stereo partly drawn),< 260
13,COc1ccc(NC(=O)c2c(Nc3ccccc3)sc(C(=O)c3ccc(F)cc3)c2N)cc1,< 1000
14,O=C(Nc1ccc(Cl)c(Cl)c1)N[C@@H]1CC[C@H](CCn2cc(C3CCCCC3)nn2)O[C@H]1CO,< 260
15,O=C(Nc1ccc(OCC(F)(F)C(F)F)c(C(F)(F)F)c1)c1ccccc1O,< 260
16,Cc1cccc(N(Cc2cc(=O)[nH]c3ccccc23)C(=O)CCl)c1,< 260
17,CCCC(=O)NC(c1ccc(C(C)C)cc1)c1ccc2cccnc2c1O (stereo not drawn),< 260
18,Cc1cc(C)c2c(N)c(C(=O)Nc3ncc(C)s3)sc2n1,1010
19,COc1cccc(-c2ccc([C@H]3[C@@H](CO)N(C(=O)Cc4ccccc4)[C@H]3C#N)cc2)c1,< 260
20,O=C(NC1CCCCC1)C(c1cccnc1)N(C(=O)CCl)c1ccc(F)cc1 (stereo not drawn),9950
21,COc1ccc(-n2nc3c(N4CCC(C(=O)NCc5cccc(C)c5)CC4)nnc(C)c3c2C)cc1,< 260
